Like-named read-outs stand apart in the source and are kept apart here.
Columns and labels:
EGFR del19/T790M/C797S = EGFR del19/T790M/C797S (Homo sapiens, UniProt P00533, C797S/DEL746-750/T790M); test: Biochemical EGFR kinase assay (Lance Ultra TR-FRET), triple mutant del19/T790M/C797S
Method in brief: (§1)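 Enzyme reactions lasted 1 hour at room temperature with test compounds between 0.003 and 10 μM, followed by 10 mM EDTA quench.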

EGFR L858R/T790M/C797S = EGFR L858R/T790M/C797S (Homo sapiens, UniProt P00533, C797S/L858R/T790M); test: Biochemical EGFR kinase assay (Lance Ultra TR-FRET), triple mutant L858R/T790M/C797S
Method in brief: as §1

EGFR del19/C797S = EGFR del19/C797S (Homo sapiens, UniProt P00533, C797S/DEL746-750); test: Biochemical EGFR kinase assay (Lance Ultra TR-FRET), double mutant del19/C797S
Method in brief: as §1

EGFR L858R/C797S = EGFR L858R/C797S (Homo sapiens, UniProt P00533, C797S/L858R); test: Biochemical EGFR kinase assay (Lance Ultra TR-FRET), double mutant L858R/C797S
Method in brief: as §1

EGFR wildtype (WT) = EGFR wildtype (WT) (Homo sapiens, UniProt P00533); test: Biochemical EGFR kinase assay (Lance Ultra TR-FRET), wildtype
Method in brief: as §1

[1] = IC50 del19/T790M/C797S (nM) 100 μM ATP, 100 μM ATP
[2] = Km ATP, read-out: IC50 del19/T790M/C797S (nM) Km ATP
[3] = IC50 L858R/T790M/C797S (nM) 100 μM ATP, 100 μM ATP
[4] = Km ATP, read-out: IC50 L858R/T790M/C797S (nM) Km ATP
[5] = IC50 del19/C797S (nM) 100 μM ATP, 100 μM ATP
[6] = Km ATP, read-out: IC50 del19/C797S (nM) Km ATP
[7] = IC50 L858R/C797S (nM) 100 μM ATP, 100 μM ATP
[8] = Km ATP, read-out: IC50 L858R/C797S (nM) Km ATP
[9] = IC50 WT (nM) 100 μM ATP, 100 μM ATP
[10] = Km ATP, read-out: IC50 WT (nM) Km ATP
[11] = Km ATP, read-out: IC50 del19/T790M/C797S, Km ATP
[12] = Km ATP, read-out: IC50 L858R/T790M/C797S, Km ATP
[13] = Km ATP, read-out: IC50 del19/C797S, Km ATP
[14] = Km ATP, read-out: IC50 L858R/C797S, Km ATP
[15] = Km ATP, read-out: IC50 WT, Km ATP

EGFR del19/C797S, sequence (P00533 with tags, fused parts or gaps DEL746-750/C797S): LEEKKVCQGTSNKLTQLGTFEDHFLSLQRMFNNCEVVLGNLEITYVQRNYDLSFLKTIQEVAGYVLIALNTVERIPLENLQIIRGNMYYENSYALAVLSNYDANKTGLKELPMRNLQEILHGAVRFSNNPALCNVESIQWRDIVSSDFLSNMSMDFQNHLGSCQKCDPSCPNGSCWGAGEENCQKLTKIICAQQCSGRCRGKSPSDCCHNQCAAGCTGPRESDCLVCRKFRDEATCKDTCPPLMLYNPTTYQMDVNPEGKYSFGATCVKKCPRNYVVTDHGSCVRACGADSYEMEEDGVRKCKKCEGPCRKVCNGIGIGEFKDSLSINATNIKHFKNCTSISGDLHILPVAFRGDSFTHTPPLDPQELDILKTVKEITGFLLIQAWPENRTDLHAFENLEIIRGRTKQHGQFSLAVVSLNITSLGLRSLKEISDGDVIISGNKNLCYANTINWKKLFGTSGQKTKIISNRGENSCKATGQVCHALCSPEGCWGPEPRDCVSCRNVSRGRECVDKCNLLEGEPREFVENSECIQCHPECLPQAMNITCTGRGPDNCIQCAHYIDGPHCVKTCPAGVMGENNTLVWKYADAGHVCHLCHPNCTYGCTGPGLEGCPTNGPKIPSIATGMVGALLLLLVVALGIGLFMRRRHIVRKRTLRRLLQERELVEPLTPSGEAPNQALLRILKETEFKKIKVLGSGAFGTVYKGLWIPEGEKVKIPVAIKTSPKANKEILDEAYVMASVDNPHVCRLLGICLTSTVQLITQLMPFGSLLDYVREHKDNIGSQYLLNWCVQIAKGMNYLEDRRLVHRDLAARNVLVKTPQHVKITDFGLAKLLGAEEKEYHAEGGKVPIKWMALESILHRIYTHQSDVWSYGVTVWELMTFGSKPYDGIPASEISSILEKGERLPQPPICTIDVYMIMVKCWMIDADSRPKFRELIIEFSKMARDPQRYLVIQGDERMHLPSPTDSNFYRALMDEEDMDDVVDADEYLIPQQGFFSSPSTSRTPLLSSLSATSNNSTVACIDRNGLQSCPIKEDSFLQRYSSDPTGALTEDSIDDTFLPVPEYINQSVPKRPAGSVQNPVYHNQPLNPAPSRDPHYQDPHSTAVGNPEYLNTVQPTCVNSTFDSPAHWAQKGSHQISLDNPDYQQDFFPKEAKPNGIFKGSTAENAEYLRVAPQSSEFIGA
EGFR L858R/C797S, sequence (P00533 25-1210 C797S/L858R): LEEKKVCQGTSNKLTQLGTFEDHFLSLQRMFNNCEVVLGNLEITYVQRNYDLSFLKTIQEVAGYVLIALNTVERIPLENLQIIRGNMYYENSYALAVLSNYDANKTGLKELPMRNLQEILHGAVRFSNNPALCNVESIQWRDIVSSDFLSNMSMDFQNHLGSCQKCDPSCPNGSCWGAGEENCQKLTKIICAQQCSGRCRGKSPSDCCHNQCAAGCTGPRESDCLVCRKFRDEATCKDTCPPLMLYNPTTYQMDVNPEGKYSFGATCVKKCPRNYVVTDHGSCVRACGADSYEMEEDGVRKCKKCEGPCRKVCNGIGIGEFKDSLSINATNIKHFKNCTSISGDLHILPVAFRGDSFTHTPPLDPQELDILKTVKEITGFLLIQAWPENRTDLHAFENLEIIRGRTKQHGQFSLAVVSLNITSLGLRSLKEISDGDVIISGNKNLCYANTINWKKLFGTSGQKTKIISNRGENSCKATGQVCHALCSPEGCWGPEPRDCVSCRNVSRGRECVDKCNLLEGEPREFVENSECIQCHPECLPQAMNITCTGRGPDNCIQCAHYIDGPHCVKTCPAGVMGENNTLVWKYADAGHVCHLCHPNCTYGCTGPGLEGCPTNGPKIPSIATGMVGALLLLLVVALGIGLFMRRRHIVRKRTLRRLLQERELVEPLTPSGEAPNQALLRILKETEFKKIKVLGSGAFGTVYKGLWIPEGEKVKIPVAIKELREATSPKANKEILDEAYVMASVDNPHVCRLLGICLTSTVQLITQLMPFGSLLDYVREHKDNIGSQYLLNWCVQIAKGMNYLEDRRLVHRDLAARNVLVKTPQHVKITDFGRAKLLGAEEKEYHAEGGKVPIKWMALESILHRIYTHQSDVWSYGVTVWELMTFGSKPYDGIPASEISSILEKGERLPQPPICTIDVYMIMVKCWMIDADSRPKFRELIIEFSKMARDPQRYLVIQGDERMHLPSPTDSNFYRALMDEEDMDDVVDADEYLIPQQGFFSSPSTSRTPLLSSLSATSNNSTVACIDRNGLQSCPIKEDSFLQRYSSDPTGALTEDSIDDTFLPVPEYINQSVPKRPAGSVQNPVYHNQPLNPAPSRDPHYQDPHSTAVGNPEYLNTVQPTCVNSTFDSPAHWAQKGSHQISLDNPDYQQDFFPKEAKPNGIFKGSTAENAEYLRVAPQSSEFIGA
EGFR wildtype (WT), sequence (P00533 25-1210): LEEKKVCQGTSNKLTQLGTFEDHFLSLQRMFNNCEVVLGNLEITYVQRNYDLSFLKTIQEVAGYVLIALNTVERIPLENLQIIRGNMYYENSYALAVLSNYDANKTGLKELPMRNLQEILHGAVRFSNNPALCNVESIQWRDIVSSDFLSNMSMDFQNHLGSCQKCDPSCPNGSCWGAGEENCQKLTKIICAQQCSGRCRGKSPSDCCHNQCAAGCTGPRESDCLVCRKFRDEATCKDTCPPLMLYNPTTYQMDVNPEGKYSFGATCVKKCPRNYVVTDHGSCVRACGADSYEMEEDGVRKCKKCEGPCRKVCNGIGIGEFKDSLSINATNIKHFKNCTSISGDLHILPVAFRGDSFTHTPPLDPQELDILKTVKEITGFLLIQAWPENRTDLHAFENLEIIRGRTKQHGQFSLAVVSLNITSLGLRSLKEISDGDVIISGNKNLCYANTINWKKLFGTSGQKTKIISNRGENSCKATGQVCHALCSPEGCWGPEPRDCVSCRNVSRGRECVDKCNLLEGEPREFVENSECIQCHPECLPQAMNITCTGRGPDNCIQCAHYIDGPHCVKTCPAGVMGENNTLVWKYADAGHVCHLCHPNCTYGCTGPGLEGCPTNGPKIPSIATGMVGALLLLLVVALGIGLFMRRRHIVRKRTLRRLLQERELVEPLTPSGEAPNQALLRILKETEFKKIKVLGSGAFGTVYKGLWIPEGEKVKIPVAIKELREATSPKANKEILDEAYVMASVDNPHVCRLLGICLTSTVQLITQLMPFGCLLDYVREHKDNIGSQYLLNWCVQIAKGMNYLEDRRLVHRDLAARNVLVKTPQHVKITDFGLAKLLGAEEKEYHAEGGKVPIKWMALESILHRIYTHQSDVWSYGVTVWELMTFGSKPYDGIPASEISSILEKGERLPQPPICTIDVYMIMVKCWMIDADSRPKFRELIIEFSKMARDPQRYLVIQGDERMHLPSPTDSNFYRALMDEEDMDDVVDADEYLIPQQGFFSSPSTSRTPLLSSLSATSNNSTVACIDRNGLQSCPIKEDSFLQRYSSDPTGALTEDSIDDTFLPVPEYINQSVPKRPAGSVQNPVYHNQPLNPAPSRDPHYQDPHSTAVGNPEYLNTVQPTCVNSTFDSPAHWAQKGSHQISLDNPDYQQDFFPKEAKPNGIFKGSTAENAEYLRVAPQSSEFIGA
EGFR L858R/T790M/C797S, sequence (P00533 25-1210 T790M/C797S/L858R): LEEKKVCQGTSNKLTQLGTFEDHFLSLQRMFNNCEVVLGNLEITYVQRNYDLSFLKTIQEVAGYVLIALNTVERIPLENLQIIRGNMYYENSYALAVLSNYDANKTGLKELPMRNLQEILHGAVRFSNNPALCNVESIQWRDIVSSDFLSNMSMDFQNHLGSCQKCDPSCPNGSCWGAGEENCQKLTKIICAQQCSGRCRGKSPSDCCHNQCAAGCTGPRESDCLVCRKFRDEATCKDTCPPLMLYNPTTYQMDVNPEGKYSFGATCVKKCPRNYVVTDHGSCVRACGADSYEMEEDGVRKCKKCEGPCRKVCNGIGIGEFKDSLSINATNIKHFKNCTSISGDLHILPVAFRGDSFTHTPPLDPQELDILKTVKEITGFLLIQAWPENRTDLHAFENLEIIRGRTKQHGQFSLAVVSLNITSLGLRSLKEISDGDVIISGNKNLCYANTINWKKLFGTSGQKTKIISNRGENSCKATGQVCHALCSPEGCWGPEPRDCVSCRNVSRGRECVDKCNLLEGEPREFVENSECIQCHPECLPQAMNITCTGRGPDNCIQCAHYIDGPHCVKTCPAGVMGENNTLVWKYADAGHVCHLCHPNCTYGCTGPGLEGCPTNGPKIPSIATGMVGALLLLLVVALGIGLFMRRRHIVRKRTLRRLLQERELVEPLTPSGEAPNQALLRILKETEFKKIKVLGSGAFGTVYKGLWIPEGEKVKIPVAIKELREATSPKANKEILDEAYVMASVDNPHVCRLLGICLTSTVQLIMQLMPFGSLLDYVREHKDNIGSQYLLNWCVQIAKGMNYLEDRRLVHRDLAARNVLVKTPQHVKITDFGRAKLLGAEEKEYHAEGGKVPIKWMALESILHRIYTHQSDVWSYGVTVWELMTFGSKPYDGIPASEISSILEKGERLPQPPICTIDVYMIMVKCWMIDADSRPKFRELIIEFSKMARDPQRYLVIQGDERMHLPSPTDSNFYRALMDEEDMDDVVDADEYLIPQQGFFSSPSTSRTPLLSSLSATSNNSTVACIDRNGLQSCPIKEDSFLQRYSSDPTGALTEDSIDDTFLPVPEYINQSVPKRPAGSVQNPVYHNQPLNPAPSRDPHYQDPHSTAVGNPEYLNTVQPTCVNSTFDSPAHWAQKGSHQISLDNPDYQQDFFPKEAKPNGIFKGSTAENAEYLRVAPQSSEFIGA

IC50 (EGFR del19/T790M/C797S; [1]) [nM]	IC50 (EGFR del19/T790M/C797S; [2]) [nM]	IC50 (EGFR L858R/T790M/C797S; [3]) [nM]	IC50 (EGFR L858R/T790M/C797S; [4]) [nM]	IC50 (EGFR del19/C797S; [5]) [nM]	IC50 (EGFR del19/C797S; [6]) [nM]	IC50 (EGFR L858R/C797S; [7]) [nM]	IC50 (EGFR L858R/C797S; [8]) [nM]	IC50 (EGFR wildtype (WT); [9]) [nM]	IC50 (EGFR wildtype (WT); [10]) [nM]	IC50 (EGFR del19/T790M/C797S; IC50 del19/T790M/C797S, 100 μM ATP) [nM]	IC50 (EGFR del19/T790M/C797S; [11]) [nM]	IC50 (EGFR L858R/T790M/C797S; IC50 L858R/T790M/C797S, 100 μM ATP) [nM]	IC50 (EGFR L858R/T790M/C797S; [12]) [nM]	IC50 (EGFR del19/C797S; IC50 del19/C797S, 100 μM ATP) [nM]	IC50 (EGFR del19/C797S; [13]) [nM]	IC50 (EGFR L858R/C797S; IC50 L858R/C797S, 100 μM ATP) [nM]	IC50 (EGFR L858R/C797S; [14]) [nM]	IC50 (EGFR wildtype (WT); IC50 WT, 100 μM ATP) [nM]	IC50 (EGFR wildtype (WT); [15]) [nM]	Compound
0.2	0.6	0.2	0.2	0.4	0.6	2.8	0.7	918	2.2											Cn1ccc(-c2cnc(Nc3ccnc(-c4cnn(S(=O)(=O)C5CC5)c4)n3)cc2N[C@H]2CC[C@@H](NCC(F)F)CC2)n1 [Example 45, N^2-(2-(1-(Cyclopropylsulfonyl)-1H-pyrazol-4-yl)pyrimidin-4-yl)-N^4-((1s,4s)-4-((2,2-difluoroethyl)amino)cyclohexyl)-5-(1-methyl-1H-pyrazol-3-yl)pyridine-2,4-diamine]
											0.2		0.1		1.8		1.3		2.7	CN1CCC(n2ccc(-c3cnc(Nc4ccnc(-c5cnn(CC(F)F)c5)n4)cc3N[C@H]3CC[C@@](C)(O)CC3)n2)CC1 [Example 342, (1s,4s)-4-((2-((2-(1-(2,2-Difluoroethyl)-1H-pyrazol-4-yl)pyrimidin-4-yl)amino)-5-(1-(1-methylpiperidin-4-yl)-1H-pyrazol-3-yl)pyridin-4-yl)amino)-1-methylcyclohexan-1-ol]
0.1	0.1	0.2	0.1	2.7	2.9	11.6	0.9	> 10000	62.7											C[C@]1(O)CC[C@@H](Nc2cc(Nc3ccnc(-c4cnn(CC(F)F)c4)n3)ncc2-c2ccn(C(F)F)n2)CC1 [Example 143, (1s,4s)-4-((2-((2-(1-(2,2-Difluoroethyl)-1H-pyrazol-4-yl)pyrimidin-4-yl)amino)-5-(1-(difluoromethyl)-1H-pyrazol-3-yl)pyridin-4-yl)amino)-1-methylcyclohexan-1-ol]
	1.3		0.4		32.9		30.4		166											Cc1cn(-c2cnc(Nc3ccnc(-c4cnn(S(=O)(=O)C5CC5)c4)n3)cc2N[C@H]2CC[C@@](C)(O)CC2)nc1C(F)(F)F [Example 186, (1s,4s)-4-((2-((2-(1-(Cyclopropylsulfonyl)-1H-pyrazol-4-yl)pyrimidin-4-yl)amino)-5-(4-methyl-3-(trifluoromethyl)-1H-pyrazol-1-yl)pyridin-4-yl)amino)-1-methylcyclohexan-1-ol]
0.7	0.5	0.7	0.3	4.7	3.3	132	6.6	> 10000	37.8											Cn1ccc(-c2cnc(Nc3ccnc(-c4cnn(S(=O)(=O)C5CC5)c4)n3)cc2NC2CCCC(NCC(F)F)C2)n1 (centres unmarked) [Example 224, N^2-(2-(1-(Cyclopropylsulfonyl)-1H-pyrazol-4-yl)pyrimidin-4-yl)-N^4-(3-((2,2-difluoroethyl)amino)cyclohexyl)-5-(1-methyl-1H-pyrazol-3-yl)pyridine-2,4-diamine]
0.4	0.2	0.8	0.1	47.6	45.1	295	26.9	> 10000	77.7											COCCn1cc(-c2nccc(Nc3cc(N[C@H]4CC[C@@](C)(O)CC4)c(-c4ccn(C(F)F)n4)cn3)n2)cn1 [Example 138, (1s,4s)-4-((5-(1-(Difluoromethyl)-1H-pyrazol-3-yl)-2-((2-(1-(2-methoxyethyl)-1H-pyrazol-4-yl)pyrimidin-4-yl)amino)pyridin-4-yl)amino)-1-methylcyclohexan-1-ol]
2.7		1	0.2	2	1.7	10	4.5	4010	8.4											CC(C)(O)[C@H]1CC[C@@H](Nc2cc(Nc3ccnc(-c4cnn(S(=O)(=O)C5CC5)c4)n3)ncc2-c2ccn(CC(F)F)n2)CC1 [Example 243, 2-((1s,4s)-4-((2-((2-(1-(Cyclopropylsulfonyl)-1H-pyrazol-4-yl)pyrimidin-4-yl)amino)-5-(1-(2,2-difluoroethyl)-1H-pyrazol-3-yl)pyridin-4-yl)amino)cyclohexyl)propan-2-ol]

The next lines start with the molecule.

Compound	IC50 (EGFR del19/T790M/C797S; [1]) [nM]	IC50 (EGFR del19/T790M/C797S; [2]) [nM]	IC50 (EGFR L858R/T790M/C797S; [3]) [nM]	IC50 (EGFR L858R/T790M/C797S; [4]) [nM]	IC50 (EGFR del19/C797S; [5]) [nM]	IC50 (EGFR del19/C797S; [6]) [nM]	IC50 (EGFR L858R/C797S; [7]) [nM]	IC50 (EGFR L858R/C797S; [8]) [nM]	IC50 (EGFR wildtype (WT); [9]) [nM]	IC50 (EGFR wildtype (WT); [10]) [nM]	IC50 (EGFR del19/T790M/C797S; IC50 del19/T790M/C797S, 100 μM ATP) [nM]	IC50 (EGFR del19/T790M/C797S; [11]) [nM]	IC50 (EGFR L858R/T790M/C797S; IC50 L858R/T790M/C797S, 100 μM ATP) [nM]	IC50 (EGFR L858R/T790M/C797S; [12]) [nM]	IC50 (EGFR del19/C797S; IC50 del19/C797S, 100 μM ATP) [nM]	IC50 (EGFR del19/C797S; [13]) [nM]	IC50 (EGFR L858R/C797S; IC50 L858R/C797S, 100 μM ATP) [nM]	IC50 (EGFR L858R/C797S; [14]) [nM]	IC50 (EGFR wildtype (WT); IC50 WT, 100 μM ATP) [nM]	IC50 (EGFR wildtype (WT); [15]) [nM]
CC1(O)CCC(Nc2cc(Nc3ccnc(N4CC(O)C(F)(F)C4)n3)ncc2-c2ccn(C(F)F)n2)CC1 (centres unmarked) [Example 349, 1-(4-((5-(1-(Difluoromethyl)-1H-pyrazol-3-yl)-4-(((1s,4s)-4-hydroxy-4-methylcyclohexyl)amino)pyridin-2-yl)amino)pyrimidin-2-yl)-4,4-difluoropyrrolidin-3-ol]											1	2.4	2.8	0.3	276	53.7	304	77.2	> 10000	189
CC(C)(CO)CNc1cc(Nc2ccnc(-c3cnn(S(=O)(=O)C4CC4)c3)n2)ncc1-c1csc(C(C)(C)O)n1 [Example 90, 3-((2-((2-(1-(Cyclopropylsulfonyl)-1H-pyrazol-4-yl)pyrimidin-4-yl)amino)-5-(2-(2-hydroxypropan-2-yl)thiazol-4-yl)pyridin-4-yl)amino)-2,2-dimethylpropan-1-ol]	2.6		7.1		367		1490		> 10000											
O=S(=O)(C1CC1)n1cc(-c2nccc(Nc3cc(NC4CCCC4O)c(-c4ccn(C(F)F)n4)cn3)n2)cn1 (centres unmarked) [Example 29, 2-((2-((2-(1-(Cyclopropylsulfonyl)-1H-pyrazol-4-yl)pyrimidin-4-yl)amino)-5-(1-(difluoromethyl)-1H-pyrazol-3-yl)pyridin-4-yl)amino)cyclopentan-1-ol]	2.4	1.1	7.7	1	77.1	89.9	590	26.2	> 10000	218										
O=S(=O)(C1CC1)n1cc(-c2nccc(Nc3cc(NC[C@H]4CC[C@@H](O)CC4)c(-c4ccn(C(F)F)n4)cn3)n2)cn1 [Example 30, (1s,4s)-4-(((2-((2-(1-(Cyclopropylsulfonyl)-1H-pyrazol-4-yl)pyrimidin-4-yl)amino)-5-(1-(difluoromethyl)-1H-pyrazol-3-yl)pyridin-4-yl)amino)methyl)cyclohexan-1-ol]	2.4	0.6	2.8	0.3	2.2	0.5	41.3		> 10000	15.4										
O=S(=O)(C1CC1)n1cc(-c2nccc(Nc3cc(NC4CCCC(NCCF)C4)c(-c4ccn(C(F)F)n4)cn3)n2)cn1 (centres unmarked) [Example 194, N^2-(2-(1-(Cyclopropylsulfonyl)-1H-pyrazol-4-yl)pyrimidin-4-yl)-5-(1-(difluoromethyl)-1H-pyrazol-3-yl)-N^4-(3-((2-fluoroethyl)amino)cyclohexyl)pyridine-2,4-diamine]	0.2	0.3	0.6	0.1	7.5	4.4	32.1	5.8	> 10000	19.9										
CN(C)C[C@H]1C[C@@H](CNc2cc(Nc3ccnc(-c4cnn(S(=O)(=O)C5CC5)c4)n3)ncc2-c2ccn(C(F)F)n2)C1 [Example 203, N^2-(2-(1-(Cyclopropylsulfonyl)-1H-pyrazol-4-yl)pyrimidin-4-yl)-5-(1-(difluoromethyl)-1H-pyrazol-3-yl)-N^4-(((1s,3s)-3-((dimethylamino)methyl)cyclobutyl)methyl)pyridine-2,4-diamine]	0.1		0.2		1.1		8.3		2970											
Cc1nn(CC(F)(F)F)cc1-c1nccc(Nc2cc(N[C@H]3CC[C@@](C)(O)CC3)c(-c3ccn(C(F)F)n3)nn2)n1 [Example 375, (1s,4s)-4-((3-(1-(Difluoromethyl)-1H-pyrazol-3-yl)-6-((2-(3-methyl-1-(2,2,2-trifluoroethyl)-1H-pyrazol-4-yl)pyrimidin-4-yl)amino)pyridazin-4-yl)amino)-1-methylcyclohexan-1-ol]												16.4		11.1		1150		51.4		2290
